Results as given in PubChem BioAssay AID2305 (GlaxoSmithKline (GSK), 2010).
pIC50: −log10 of the molar value.

Each molecule was assayed on P. falciparum 3D7 growth, pLDH absorbance (assay: P. falciparum 3D7 growth inhibition, dose response, strain 3D7 (AID 2305)).
In the case of CCNc1cc(-c2cccc(OC)c2)nc(Nc2ccc(F)cc2)n1, the pIC50 was 5.90.
With O=C(Nc1ccc(C(=O)OC[C@@H]2CCCN3CCCC[C@H]23)cc1)c1ccc(Cl)c(Cl)c1 the pIC50 was 6.14.
Work on O=C(/C=C/c1ccc(Cl)c(Cl)c1)NCC1CCC(N2CCC(c3c[nH]c4ccccc34)CC2)CC1 (stereo not drawn) yielded a pIC50 of 6.77.
Work on O=C(/C=C/c1ccc(C(F)(F)F)cc1)N1CCC(CCN2CCC(c3c[nH]c4ccccc34)CC2)CC1 yielded a pIC50 of 6.14.
Molecule O=C(c1cc2nc3c(c(C(F)(F)F)n2n1)CCc1ccccc1-3)N1CCN2CCCC2C1 (stereo not drawn) has a pIC50 of 6.02.
Work on O=C(Nc1cccc(-c2csc(-c3nc4ccccc4[nH]3)c2)c1)c1cc(=O)c2ccccc2[nH]1 yielded a pIC50 of 6.64.
For NC1CCCN(Cc2ccc(-c3ccc(-c4nc5ccc(F)cc5[nH]4)s3)cc2)C1 (stereo not drawn), the pIC50 was 6.74.
COCCNCc1ccc(-c2cccc(CNC3CCN(Cc4ccccc4)CC3)c2)cc1 gave a pIC50 of 6.48.
With CCN(CCCN1CCCCC1)c1cc(C)nc(Nc2ccc(C(C)C)cc2)n1 the pIC50 was 6.27.
Molecule OCCN1CCN(C2Cc3ccc(F)cc3Sc3ccc(Cl)cc32)CC1 (stereo not drawn) has a pIC50 of 6.06.
With CCN(CC)CC#Cc1ccc2[nH]c(C)c(Cl)c(=O)c2c1 the pIC50 was 6.15.
CCc1c[nH]c2c(N3CCCS3(=O)=O)cc(C(=O)N[C@@H](Cc3ccccc3)[C@H](O)CNC3CCCCC3)cc12 gave a pIC50 of 6.11.
Work on C=CCOC(=O)N1CCC(CNCc2ccc(-c3cccc(-c4nc5ccc(F)cc5[nH]4)c3)cc2)C1 (stereo not drawn) yielded a pIC50 of 6.85.
For O=C(NCCCN1CCCCC1)c1cccc(Nc2nccc(Nc3ccc(Oc4ccccc4)cc3)n2)c1, the pIC50 was 6.09.
For COc1cc2nc(N3CCC(CNC(=O)c4cccc5cc[nH]c45)CC3)nc(N)c2cc1OC, the pIC50 was 5.80.
Molecule NCc1ccc(CNCc2ccc(-c3ccc(-c4nc5ccc(F)cc5[nH]4)cc3)cc2)cc1 has a pIC50 of 6.40.
Work on CCNCc1ccc(-c2cc3ncnc(Nc4ccc(OCc5cccc(F)c5)c(Cl)c4)c3s2)[nH]1 yielded a pIC50 of 6.96.
O=C(NCCc1ccccc1)N(Cc1ccc(-c2cccc(CN3CCNCC3)c2)cc1)C1CCN(Cc2ccccc2)CC1 showed a pIC50 of 5.87.
O[C@H]1[C@H](OCc2ccc(-c3ccccc3)cc2)CC[C@@H]1N1CCCCC1 gave a pIC50 of 5.97.
Molecule O=C(Nc1cccc(-c2csc(-c3nc4ccccc4[nH]3)c2)c1)c1ccoc1 has a pIC50 of 6.68.
COCCNCc1ccc(-c2cccc(CN(C(=O)NCCc3ccccc3)C3CCN(Cc4ccccc4)CC3)c2)cc1 gave a pIC50 of 6.04.
Work on COc1cc2nc(NCC3CCN(C(=O)c4ccc(-c5ccc(C(=O)N(C)C)cc5C)cc4)CC3)nc(N)c2cc1OC yielded a pIC50 of 6.02.
Work on Cc1cccc2[nH]c(-c3cccc(-c4ccc(CNCCNC(=O)c5ccnn5C)cc4)c3)nc12 yielded a pIC50 of 6.77.
For Cc1onc(-c2ccccc2)c1-c1nc(NCc2ccccc2Cl)no1, the pIC50 was 6.15.
With O=C(/C=C/c1ccc(Cl)c(Cl)c1)NCCCCN1CCCN(C(=O)Nc2cc(Cl)cc(Cl)c2)CC1 the pIC50 was 6.02.
CCCNCc1ccc(-c2ccc(CN(Cc3cnc(C)cn3)C(=O)CC#N)cc2)nc1 gave a pIC50 of 5.91.
In the case of CCOC(=O)c1[nH]c2ccc(F)cc2c1NC(=O)CN1CCN(c2cccc(C(F)(F)F)c2)CC1, the pIC50 was 6.34.
For O=C(NC1CCN(c2ccnc3cc(Cl)ccc23)C1)c1ccccc1F (stereo not drawn), the pIC50 was 6.01.
Cc1cc2nc(-c3ccc(OCC(=O)NCc4cccc(C(F)(F)F)c4)cc3)[nH]c2cc1C gave a pIC50 of 6.00.
CNCCNCc1cccc(-c2ccc(-c3nc4ccc(C(F)(F)F)cc4[nH]3)cc2)c1 was tested, and the pIC50 was 6.16.
O=C(Cc1ccccc1)NC(CCN1CCC(O)(c2cccc(C(F)(F)F)c2)CC1)c1ccc(Cl)c(Cl)c1 (stereo not drawn) gave a pIC50 of 6.07.
NC1CCN(Cc2ccc(-c3ccc(-c4nc5ccccc5[nH]4)s3)cc2)C1 (stereo not drawn) showed a pIC50 of 6.13.
CCc1nc2nc(C)cc(Nc3ccc(F)c(Cl)c3)n2n1 gave a pIC50 of 6.01.
In the case of O=C1Nc2cccc3c2C1(CCCCCN1CCC(c2c[nH]c4ccncc24)CC1)CCC3 (stereo not drawn), the pIC50 was 6.00.
With N#Cc1ccc(NC(=NCc2ccc(Cl)cc2Cl)Nc2cccc(Cl)c2Cl)c(O)c1 the pIC50 was 5.95.
CCOc1cc(C(=O)NCCN2CCCCC2)ccc1-c1nc2ccc(Cl)cc2[nH]1 gave a pIC50 of 5.97.
In the case of Cc1ccccc1NC1=NC(=S)N(c2cccc(C(F)(F)F)c2)C12CCC(C(C)(C)C)CC2 (stereo not drawn), the pIC50 was 6.01.
Molecule Cc1cc(CNCC(CCNc2cc(=O)c3ccccc3[nH]2)NCc2cc(Br)cc(Br)c2)oc1C (stereo not drawn) has a pIC50 of 6.05.
With COc1ccc(CC(C)NCC(O)c2cccc(C(F)(F)F)c2)cc1F (stereo not drawn) the pIC50 was 6.08.
Cc1cc(C(=O)Nc2nc(-c3ccccn3)nc3ccsc23)no1 was tested, and the pIC50 was 6.09.
COc1ccccc1-n1c(SCC(=O)Nc2ccccc2F)nc2cccnc21 showed a pIC50 of 6.38.
Work on CCN(CC)CCNc1c2ccc(Cl)cc2nc2ccc(OC)nc12 yielded a pIC50 of 6.13.
Molecule COc1ccc2nccc([C@@H](O)CN3CCC(NC(=O)/C=C/c4ccc(Cl)c(C(F)(F)F)c4)CC3)c2c1 has a pIC50 of 6.54.
Molecule Cc1cc(Nc2ccc(O)cc2)nc2cc(O)ccc12 has a pIC50 of 6.12.
CCOc1ccc(C=CC(=O)Nc2ccc3nc(N4CCOCC4)cc(C)c3c2)cc1OC gave a pIC50 of 6.05.
In the case of c1cc(-c2ccc(CNCc3ccsc3)cc2)cc(-c2nc3ccccc3[nH]2)c1, the pIC50 was 6.80.
For CC1CN(Cc2ccc(-c3cccc(-c4nc5ccc(F)cc5[nH]4)c3)cc2)CC(C)O1 (stereo not drawn), the pIC50 was 6.04.
O=C(NCc1ccccc1)Nc1cccc(-c2cccc(-c3nc4ccc(C(F)(F)F)cc4[nH]3)c2)c1 gave a pIC50 of 6.59.
For Cc1[nH]c(C)c(-c2ccc(Oc3ccc(F)cc3)cc2)c(=O)c1Br, the pIC50 was 7.30.
Molecule CCCC(C)Nc1nc(C)cc(N[C@@H](Cc2ccccc2)C(=O)NCCOc2ccccc2)n1 (stereo partly drawn) has a pIC50 of 6.15.
Molecule O=C(NCc1cccs1)[C@H](Cc1ccccc1)Nc1ccnc(NCCc2ccccc2)n1 has a pIC50 of 5.98.
For Cn1nc(-c2cccc(CNC3CCc4ccccc43)c2)c2cnc(NCCCN3CCCC3)nc21 (stereo not drawn), the pIC50 was 6.06.
CCOC(=O)N[C@@H]1CN[C@@H](C#Cc2cc3c(Nc4ccc(OCc5cccc(F)c5)c(Cl)c4)ncnc3s2)C1 showed a pIC50 of 5.97.
COc1ccccc1-c1ccc(C(=O)NCC2CCCN(Cc3cccc(C(F)(F)F)c3)C2)s1 (stereo not drawn) showed a pIC50 of 5.81.
Work on Cc1cccc2[nH]c(-c3ccc(-c4ccc(CNCCN5CCNCC5)cc4)s3)nc12 yielded a pIC50 of 5.94.
With COc1cccc(CNC(=O)c2cccc(-c3cccc(CN4CCC(N5CCCC5)CC4)c3)n2)c1 the pIC50 was 5.99.
Work on O=C(Nc1cc(Cl)ccc1O)c1cc(-c2ccccc2O)no1 yielded a pIC50 of 5.96.
In the case of CC[C@H]1CN2CC[C@H]1C[C@H]2[C@H](O)c1cc(-c2ccc(C)cc2)nc2ccc(OC)cc12, the pIC50 was 6.96.
For CN1CCN(CCCSc2ccc3c(c2)ncn3-c2cc(OCc3ccccc3C(F)(F)F)c(C(N)=O)s2)CC1, the pIC50 was 6.36.
Molecule CCN(CC)CCN(Cc1ccc(-c2ccc(C(F)(F)F)cc2)nc1)C(=O)Cn1cc(Cc2cnn(C)c2)c(=O)n2nc(-c3ccccc3)cc12 has a pIC50 of 6.00.
NOCCCCOc1ccccc1 gave a pIC50 of 6.74.
With Cc1ccccc1C1CCN(C2CCC(NC(=O)/C=C/c3ccccc3C(F)(F)F)CC2)CC1 (stereo not drawn) the pIC50 was 5.85.
For O=C(Cc1cccs1)NCC(c1ccccc1Cl)c1c[nH]c2ccccc12 (stereo not drawn), the pIC50 was 5.94.
With c1cc(CN2CCN(CCN3CCOCC3)CC2)cc(-c2cccc(-c3nc4ccccc4[nH]3)c2)c1 the pIC50 was 6.62.
O=S(=O)(Nc1ccc2nccc(N3CCNCC3)c2c1)c1ccc2oc3ccccc3c2c1 gave a pIC50 of 6.16.
Molecule Oc1ccc2ncnc(Nc3ccc(OCc4cccc(F)c4)c(Cl)c3)c2c1 has a pIC50 of 6.00.
In the case of CC(CN1CCN(C)CC1)C(=O)Nc1ccc(-c2ccc(-c3nc4ccccc4[nH]3)cc2)cc1 (stereo not drawn), the pIC50 was 6.02.
For CCOC(=O)NCC(=O)Nc1cccc(-c2cccc(-c3nc4c(C)cccc4[nH]3)c2)c1, the pIC50 was 6.13.
Work on O=[N+]([O-])c1ccccc1C=NNc1ccnc2ccccc12 yielded a pIC50 of 6.07.
Work on Fc1ccc2nc(-c3ccc(-c4ccc(CN5CCN(CCN6CCOCC6)CC5)cc4)s3)[nH]c2c1 yielded a pIC50 of 6.82.
For CCOC(=O)c1c(CN2CCN(C)CC2)n(Cc2ccccc2)c2cc(Br)c(O)cc12, the pIC50 was 6.23.
CCOc1cccc2nc(NCCCNCc3ccc(Cl)c(Cl)c3)cc(NCCCNCc3ccc(Cl)c(Cl)c3)c12 gave a pIC50 of 6.24.
Molecule COc1cccc(Nc2nc(C)cc(Nc3cccc(C#N)c3)n2)c1 has a pIC50 of 5.97.
For O=C(NC1CC1)c1cnc(N2CCC(Cc3ccccc3)CC2)c(Cl)c1, the pIC50 was 6.17.
In the case of O=C(Nc1ccc(Cl)cc1)Nc1cccc(-c2cccc(-c3nc4ccc(F)cc4[nH]3)c2)c1, the pIC50 was 6.66.
In the case of Cc1cc(NS(=O)(=O)c2cccc(C(C)N3CCC(N4CCCC4)CC3)c2)ccc1C(C)C (stereo not drawn), the pIC50 was 6.09.
Molecule Cn1cncc1CNCc1ccc(-c2cccc(-c3nc4ccccc4[nH]3)c2)cc1 has a pIC50 of 6.64.
COc1cc2nc(-c3ccccc3)nc(N3CCN(C(=O)c4ccco4)CC3)c2cc1OC showed a pIC50 of 5.85.
CCN(CCCN1CCCCC1)c1cc(C)nc(Nc2ccc(C)cc2Cl)n1 showed a pIC50 of 6.47.
For Cc1ccoc1C(=O)Nc1cccc(-c2cccc(-c3nc4c(C)cccc4[nH]3)c2)c1, the pIC50 was 6.17.
CN(C)CCN(C)Cc1ccc(-c2ccc(NC(=O)c3ccc(Cl)cc3)cc2)cc1 was tested, and the pIC50 was 6.03.
COc1ccc2ncc(F)c(CCN3CCC(NCc4cnc5c(c4)NC(=O)CS5)CC3)c2c1 gave a pIC50 of 6.24.
CC(=O)Nc1ccc(CN2CCC(NC(=O)c3ccc(-c4cccc(OC(C)C)c4)s3)CC2)cc1 showed a pIC50 of 5.84.
With Oc1ccc(CCCNc2nc(NCc3ccccc3-c3ccccc3)nc(N3CCNCC3)n2)cc1 the pIC50 was 6.15.
Work on COc1cc(Nc2nc(N)n(C(=O)c3ccc4c(c3)OCO4)n2)cc(OC)c1OC yielded a pIC50 of 5.95.
In the case of CCN(CC)CCOc1ccc(C(O)(C#CC(O)(c2ccccc2)c2ccc(OCCN(CC)CC)cc2)c2ccccc2)cc1 (stereo not drawn), the pIC50 was 5.88.
Cc1ccc(O)c(CN2CCCC(COC(c3ccc(F)cc3)c3ccc(F)cc3)C2)c1 (stereo not drawn) was tested, and the pIC50 was 6.15.
Molecule Cc1nc(N)nc(N)c1Oc1cccc(Cl)c1 has a pIC50 of 6.06.
COc1ccc(Cc2c(Cl)nc3nc(N)nc(N)c3c2C)cc1 gave a pIC50 of 5.96.
Molecule CCC1(C)N=C(N)N=C(N)N1c1ccccc1 (stereo not drawn) has a pIC50 of 6.10.
COc1ccc2nccc([C@@H](O)CN3CCC(NCc4cc5cccc(OCc6ccccc6)c5[nH]4)CC3)c2c1 was tested, and the pIC50 was 6.05.
In the case of COc1cccc(Nc2nc(C)cc(NC3CCN(Cc4ccccc4)CC3)n2)c1, the pIC50 was 6.16.
Molecule O=C(CNC1CCCCC1)Nc1cccc(C(=O)Nc2cccc(C(F)(F)F)c2)c1 has a pIC50 of 6.38.
Molecule COc1cc(-c2ccc(-c3cnc(N)nc3OC)[nH]2)cc(OC)c1OC has a pIC50 of 6.14.
In the case of c1ccc(Cn2nnnc2-c2cccc(Nc3ccnc4cc(-c5nccs5)ccc34)c2)cc1, the pIC50 was 6.08.
Work on c1ccc(Oc2ccc(Nc3nc(NCCc4cnc[nH]4)nc(NC4CCCC4)n3)cc2)cc1 yielded a pIC50 of 5.99.
Work on Cc1[nH]c2ccccc2c1CC1CCN(CC2CCN(C(=O)/C=C/c3ccc(Cl)c(Cl)c3)CC2)CC1 yielded a pIC50 of 6.02.
With CCCCCCN1CCCN(Cc2ccc(C(=O)Nc3ccc(C(C)(C)C)cc3)cc2)CC1 the pIC50 was 6.13.
